Experimental findings from patent publication US9877946B2, “Method for treating, managing, inhibiting, or preventing obesity” (RESEARCH & BUSINESS FOUNDATION SUNGKYUNKWAN UNIVERSITY, priority 2014, dated 2018) are described below.

Data set [1] has as its system UCP-1 expression in C3H10T1/2 cells. As to the kind of experiment: UCP-1 expression in differentiated C3H10T1/2 adipocytes, real-time PCR. Format: cell-based, mouse. The method, then:
Differentiated C3H10T1/2 adipocytes were treated with the butein and the derivatives for 24 hours, and the expression levels of UCP-1 and PRDM4 were investigated using real-time PCR.

The subject of data set [2] is T37i cells (brown fat precursor cells). Briefly: Brown adipocyte marker expression in differentiated T37i cells, real-time PCR. The class given is cell-based. Conditions: butein 5, 10 and 20 μM, 6 days, FIG. 2. The method, then: To confirm an increase in number of brown adipocytes by butein treatment, brown fat precursor cells, T37i cells, were used. The T37i cells were cultured in a medium containing 5 μg/ml insulin and 1 nM triiodothyronine (T3) for 2 days, and then the differentiation into adipocytes using a medium containing 5 μg/ml insulin was induced for 6 to 8 days. The differentiation-induced adipocytes were treated with butein for 6 days by concentrations (5, 10 and 20 μM) and stained with Oil Red O, and then mRNA expression levels of PPARγ and aP2 related to the adipocyte differentiation and brown adipocyte markers, that is, UCP-1, PRDM16 and Cidea genes, were confirmed through real-time PCR.
On the technique in general: In qPCR the cycle at which signal appears reflects the starting amount.

Data set [3] deals with HFD obesity-induced C57BL6/J mice. As to the kind of experiment: HFD obesity-induced mice, comparison with resveratrol-treated group. Format: in vivo. Conditions: for body weight compared to the control: 28-week-old mice. The method, then: To confirm an anti-obesity effect of butein, obesity was induced to C57BL6/J mice by HFD, and changes in body weight according to butein treatment were confirmed. Specifically, 7-week-old mice were adjusted for 1 week, and fed with HFD (60% fat, purchased from Research Diet) for 12 weeks to induce obesity. Afterward, 30 mg/kg of butein was treated daily into 8 of the obesity-induced mice for 8 weeks. As controls, a PBS-treated group (7 mice) and a group (8 mice) treated with resveratrol, which is known to have an effect on preventing obesity, were used. After the 8-week treatment, increases in body weight were compared, and 8 weeks later, a GTT and a ITT were performed in combination with a hematological analysis.

Data set [4] shares this test system. As to the kind of experiment: HFD obesity-induced mice, comparison with PBS-treated group. Format: in vivo. The method, then:
To confirm an anti-obesity effect of butein, obesity was induced in C57BL6/J mice by HFD, and the mice were treated with butein through abdominal injection. 7-week-old mice were adjusted for 1 week, fed with HFD (60% fat, purchased from Research Diet) for 8 weeks to induce obesity, and butein was treated daily at 5 mg/kg and 15 mg/kg into two groups of mice, each group having 7 mice. As controls, a normal diet food intake group (5 mice) and a group fed with HFD and treated with PBS (7 mice) were used. Increases in body weight during the treatment period and weights of various organs were compared, and after 8 weeks, a glucose tolerance test (GTT) and an insulin tolerance test (ITT) were performed in combination with histological and hematological analyses.

In data set [5] the test system is epididymal fat, subcutaneous fat and brown fat. Briefly: Marker expression in adipose tissues of mice treated for 14 days, real-time PCR. The class given is in vivo. Conditions: 5 mg/kg abdominal injection, FIGS. 6 to 8. Here is the method:
To examine activities of butein to increase the numbers of beige and brown adipocytes and inhibit white adipocytes in vivo, expression of markers in adipose tissues were measured after mice were treated with butein for 14 days. 6 mice were treated with 5 mg/kg of the butein through abdominal injection, and as a control, 6 mice were treated with only a solvent through abdominal injection. After 14 days, expression levels of markers for white fat and beige (brown) fat in epididymal fat, subcutaneous fat and brown fat were confirmed through real-time PCR.

Data set [6] has as its system PRDM4 expression in C3H10T1/2 cells. Briefly: PRDM4 expression in differentiated C3H10T1/2 adipocytes, real-time PCR. The class given is cell-based, mouse. Conditions: 24 hours, FIG. 25. The method, then:
To confirm an anti-obesity effect of the butein derivative, changes in expression levels of UCP-1 and PRDM4 by treatment of the butein derivative (Formulas 1-1 to 1-8 and 1-10 to 1-14) were measured. Differentiated C3H10T1/2 adipocytes were treated with the butein and the derivatives for 24 hours, and the expression levels of UCP-1 and PRDM4 were investigated using real-time PCR.

Another data set relates to PRDM4 gene. Briefly: Microarray for gene inducing bioactivity of butein. The class given is cell-based.
The test system of data set [7] is UCP-1 expression in MEF cells. As to the kind of experiment: UCP-1 expression in MEF cells. Format: cell-based, mouse. Conditions: DMSO-treated control, FIG. 4. The source says:
An increase in expression level of UCP-1 by butein treatment in C3H10T1/2 cells was compared to those by treatment of sulfuretin, fisetin, resveratrol and genistein, which are known as materials having an influence on adipocytes, and the increase in expression level of UCP-1 by butein treatment in MEF cells was compared to a DMSO-treated group as a control.

Setting [8] is: differentiated C3H10T1/2 adipocytes, 24 hours, FIG. 25.
Setting [9] is: HFD 8 weeks, butein 5 and 15 mg/kg daily, vs HFD control.

Molecules are shown by their SMILES.

Regarding `O=C(/C=C/c1ccc(O)c(O)c1)c1ccc(O)cc1O` [Compound 1-1, butein], the “expression of UCP-1 compared to sulfuretin, fisetin, resveratrol and genistein” value in data set [1] (C3H10T1/2 cells, FIG. 3) is recorded as “increased more than three times”. Also, in data set [1] (butein 5, 10 and 20 μM, 24 hours, FIG. 1), the “expression of UCP-1” value is given as “the expression of UCP-1 increased”. Further, in data set [1] (setting [8]), the “expression level of UCP-1” value is reported as “significant increases”. Besides, the “expression level of UCP-1” value in data set [1] (differentiated C3H10T1/2 cells, 24 hours, FIG. 5) is “specifically and considerably increased”. Also, in data set [2], the “expression of Cidea” value is on record as “increased”, the “expression of PRDM16” value was “increased” and the “expression of UCP-1” value is listed as “increased”. Moreover, in data set [3] (30 mg/kg daily for 8 weeks after 12 weeks HFD), the “effect of decreasing body weight compared to the resveratrol-treated group” value is reported as “considerably excellent effect of decreasing a body weight”. For the same molecule, the “decrease in body weight compared to the PBS-treated group” value in data set [3] (30 mg/kg daily for 8 weeks after 12 weeks HFD, FIG. 20) was “approximately 10%”. In addition, the “body weight compared to the control” value in data set [3] is on record as “considerable decrease”. Besides, in data set [3] (HFD-But group, FIG. 21), the “glucose-insulin metabolism (GTT and ITT)” value is given as “considerably improved”; the rectal temperature result is given as “increased”. Moreover, the food intake entry in data set [3] (between three groups, FIG. 20C) is “no differences”. For the same molecule, in data set [4] (15 mg/kg of butein, 8 weeks), the “UCP-1, PRDM16, Cox8b, PGC-1α, CIDEA, COX7a and Dio2 specifically expressed in beige adipocytes” value was “increased”; the “glucose-insulin metabolism (GTT and ITT)” value was “significantly improved”. In data set [4] (setting [9]), the body weight result is “tendency to concentration-dependent decreases”; the “weights of adipose tissues of livers and internal organs” value is on record as “tendency to concentration-dependent decreases”. Also, the “hematological analysis: glucose, cholesterol, neutral fat, HDL, LDL and a fatty acid” value in data set [4] (high dosage of butein) is “significant differences”. Besides, in data set [5], the “adipocyte markers PPARγ and aP2” value was “decreases”; the “brown adipocyte markers UCP-1, PRDM16 Cox8b and Cidea” value is “increases”; the “white adipocyte markers resistin and Nnmt” value is listed as “decreases”. For the same molecule, the “expression level of PRDM4” value in data set [6] is listed as “significant increases”. Also, the PRDM4 gene expression result with PRDM4 gene is on record as “increased in expression by more than approximately twice”. Further, in data set [7], the “expression of UCP-1 compared to the control” value is reported as “more than 10 times”.

Take `Oc1ccc(C=Cc2cc(O)cc(O)c2)cc1` [resveratrol, reference compound]: the “body weight compared to the control” value in data set [3] is given as “no changes”. In data set [3] (mouse, in vivo), the food intake result is recorded as “no differences”.

For `COc1cc(C2CC(=O)c3ccc(O)cc3O2)ccc1F` (stereo not drawn) [Compound 1-11, 2-(4-fluoro-3-methoxyphenyl)-7-hydroxychroman-4-one], the “expression level of UCP-1 compared to the butein-treated group (BFI)” value in data set [1] (setting [8]) is recorded as “considerably increased”. In addition, in data set [6], the “expression level of PRDM4 compared to the butein-treated group (BFI)” value is given as “considerably increased”.

Consider `O=C(/C=C/c1ccc(O)c(O)c1)c1ccc(O)cc1` [Compound 1-12, (E)-3-(3,4-dihydroxyphenyl)-1-(4-hydroxyphenyl)prop-2-en-1-one], for which, in data set [1] (setting [8]), the “expression level of UCP-1 compared to the butein-treated group (BFI)” value is given as “considerably increased”. Further, the “expression level of PRDM4 compared to the butein-treated group (BFI)” value in data set [6] was “considerably increased”.
